Data on 13 molecules can be found in US9145411B2, “Substituted amino-pyrimidine derivatives” (Asana Biosciences, LLC, priority 2012, dated 2015).

Usually IC50 stands for the concentration that gives 50% inhibition. Lower therefore signals inhibition by little substance.

Molecules are shown by their SMILES. Where only a bound is given, the exact number is not on record here.

One experiment has as its system pAkt(S473). The experiment can be described thus: In-cell Western assay, pAkt(S473), PC3 cells. It counts as cell-based. Conditions: Homo sapiens, PC-3, 2 hours incubation. The procedure:
(§1) Cells from human prostate cancer cell line PC3 (American Type Culture Collection (ATCC), Manassas, Va. 20108 USA) were seeded at an optimal density of 22,000 cell/well in 96-well plates containing Ham's F12K medium (90 μL) and incubated overnight. The compound dilutions were carried out in 100% DMSO followed by a dilution in the medium. Test compounds were added in serial dilutions to the wells and incubated for 2 hours. The cells were washed and fixed with 4% paraformaldehyde. After incubation at room temperature for 1 hour in the dark, blocking was done for 2 hours at room temperature. Primary antibodies for pAkt(S473) ([…] phosphorylated at serine 473), pAkt(T308) (Akt phosphorylated at threonine 308) and for pS6RP (S235/236) (phosphorylated at serine 235/236) (commercially available from Cell Signaling Technology®, whose protocol was followed for the in-cell western assay, were diluted to the required concentration and added to the corresponding wells followed by overnight incubation at 4° C. Eu-labeled rabbit (PE) (Perkin-Elmer USA catalog #AD0106) secondary antibody was added and incubated for 2 hours at room temperature. Delfia® enhancement solution (cat #1244-105, Perkin Elmer USA) was subsequently added to the plate before taking the reading at 615 nm with excitation wavelength of 340 nm, after which 0.5 μg/mL of Hoechst® 33258 dye (Catalog #86140-5, Sigma) was added to the plate and fluorescence emission was read at 460 nm with 355 nm excitation, to evaluate the correction factor. IC50 values were calculated using a sigmoidal dose-response curve fit in GraphPad Prism® v5 software.

Another experiment has as its system PC3 cells. Put plainly: XTT assay for cell viability, PC3 cells. Conditions: Homo sapiens, PC-3; PC3 cell proliferation, 96 hours. It counts as cell-based. An outline of the steps: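 Log-phase PC3 cells (1000/well) were seeded for 24 h, then exposed to serially diluted compounds (DMSO dilutions) for 96 h. Viability was measured by XTT dye conversion at 37 °C, with absorbance read at 465 nm. EC50 was obtained from a sigmoidal dose-response fit.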
A general note: Formazan colour is commonly taken as a measure of viable cells.

A further experiment concerns pS6RP (S235/236). Put plainly: In-cell Western assay, pS6RP (S235/236), PC3 cells. It counts as cell-based. Conditions: Homo sapiens, PC-3, 2 hours incubation. The procedure: as §1
A further experiment concerns the target T1, PI3Kα (wild-type) (Homo sapiens, UniProt P42336).
T1 construct: made in house; host or cells: SF9 insect cells
Put plainly: PI3 Kinase TR-FRET assay, PI3Kα (wild-type). It counts as biochemical. The conditions noted are these: wild-type P110/P85α, 10 μM ATP. An outline of the steps:
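Sf9-expressed, Ni-purified p110/p85α (5 ng) with PIP2 was preincubated with compound for 60 min at room temperature in buffer with 40 mM MgCl2 and 5 mM DTT. The reaction ran 30 min at room temperature with 10 μM PIP2 and 10 μM ATP. The TR-FRET 665/615 nm ratio was used to derive IC50 from dose-response curves.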
Background: In TR-FRET formats the signal depends on donor and acceptor labels being close together.

Another experiment has as its system pAkt(T308). The experiment can be described thus: In-cell Western assay, pAkt(T308), PC3 cells. It counts as cell-based. The conditions noted are these: Homo sapiens, PC-3, 2 hours incubation. How it is done: as §1
The next experiment has as its target T2, mTOR kinase (Homo sapiens, UniProt P42345).
T2 construct: purchased Millipore, USA
The experiment can be described thus: mTOR kinase TR-FRET assay. It counts as biochemical. The conditions noted are these: 20 μM ATP. An outline of the steps:
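Test compounds were pre-incubated 60 min with mTOR (5 ng), then ULight-p70 S6K (Thr389) peptide (50 nM) and ATP (20 μM) were added in HEPES 50 mM pH 7.5, EGTA, MnCl2 3 mM. After 60 min at room temperature, EDTA stop and Eu-anti-phospho antibody TR-FRET (665/615 nm) gave IC50 from sigmoidal variable-slope fits.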

T1 sequence (P42336 whole entry, species assumed): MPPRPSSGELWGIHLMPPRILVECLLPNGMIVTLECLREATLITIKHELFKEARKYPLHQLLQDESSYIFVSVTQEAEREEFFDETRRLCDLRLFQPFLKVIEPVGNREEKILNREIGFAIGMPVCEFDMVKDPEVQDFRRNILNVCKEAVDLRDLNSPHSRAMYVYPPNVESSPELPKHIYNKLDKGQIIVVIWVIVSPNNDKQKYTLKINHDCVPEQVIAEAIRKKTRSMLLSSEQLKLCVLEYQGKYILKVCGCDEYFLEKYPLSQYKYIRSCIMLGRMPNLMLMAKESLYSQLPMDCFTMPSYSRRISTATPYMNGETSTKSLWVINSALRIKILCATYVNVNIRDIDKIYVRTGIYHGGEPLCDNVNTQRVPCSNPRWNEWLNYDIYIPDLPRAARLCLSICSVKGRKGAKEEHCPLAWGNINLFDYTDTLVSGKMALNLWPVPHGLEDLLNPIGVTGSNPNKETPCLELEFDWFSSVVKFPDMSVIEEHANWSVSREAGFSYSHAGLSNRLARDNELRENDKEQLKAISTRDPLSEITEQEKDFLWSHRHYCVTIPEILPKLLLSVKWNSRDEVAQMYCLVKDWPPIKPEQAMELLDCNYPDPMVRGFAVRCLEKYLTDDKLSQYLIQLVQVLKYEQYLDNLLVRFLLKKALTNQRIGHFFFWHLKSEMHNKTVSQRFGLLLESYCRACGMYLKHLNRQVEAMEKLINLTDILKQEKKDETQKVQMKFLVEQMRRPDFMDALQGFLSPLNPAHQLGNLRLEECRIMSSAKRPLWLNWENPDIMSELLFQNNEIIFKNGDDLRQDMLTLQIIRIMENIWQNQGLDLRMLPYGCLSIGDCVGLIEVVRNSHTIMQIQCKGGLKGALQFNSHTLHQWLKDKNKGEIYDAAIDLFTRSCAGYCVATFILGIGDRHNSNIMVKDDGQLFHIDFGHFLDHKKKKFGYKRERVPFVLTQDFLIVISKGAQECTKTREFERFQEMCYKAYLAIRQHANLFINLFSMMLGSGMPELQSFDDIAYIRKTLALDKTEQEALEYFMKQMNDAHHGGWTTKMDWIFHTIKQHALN
T1 sequence (P27986 whole entry partner, species assumed): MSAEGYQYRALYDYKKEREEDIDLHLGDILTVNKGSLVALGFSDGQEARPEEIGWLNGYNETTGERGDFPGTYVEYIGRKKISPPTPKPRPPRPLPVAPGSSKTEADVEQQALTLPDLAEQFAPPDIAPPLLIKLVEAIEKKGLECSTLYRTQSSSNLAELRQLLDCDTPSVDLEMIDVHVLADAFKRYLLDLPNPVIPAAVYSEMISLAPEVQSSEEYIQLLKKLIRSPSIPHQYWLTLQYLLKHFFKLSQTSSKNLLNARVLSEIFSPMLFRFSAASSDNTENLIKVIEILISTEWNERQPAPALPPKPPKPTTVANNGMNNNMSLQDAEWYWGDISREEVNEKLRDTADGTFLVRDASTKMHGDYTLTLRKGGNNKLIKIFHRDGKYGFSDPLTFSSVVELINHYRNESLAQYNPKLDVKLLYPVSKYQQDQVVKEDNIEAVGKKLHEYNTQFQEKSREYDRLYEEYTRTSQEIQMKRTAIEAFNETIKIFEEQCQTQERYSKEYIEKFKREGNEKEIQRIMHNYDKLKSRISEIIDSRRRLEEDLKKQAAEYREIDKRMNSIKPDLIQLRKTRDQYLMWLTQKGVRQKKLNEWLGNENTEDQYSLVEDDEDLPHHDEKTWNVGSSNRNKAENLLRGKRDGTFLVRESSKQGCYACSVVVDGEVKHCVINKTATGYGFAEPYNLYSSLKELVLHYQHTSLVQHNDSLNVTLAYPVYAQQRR
T2 sequence (P42345 1362-2549 limits assumed): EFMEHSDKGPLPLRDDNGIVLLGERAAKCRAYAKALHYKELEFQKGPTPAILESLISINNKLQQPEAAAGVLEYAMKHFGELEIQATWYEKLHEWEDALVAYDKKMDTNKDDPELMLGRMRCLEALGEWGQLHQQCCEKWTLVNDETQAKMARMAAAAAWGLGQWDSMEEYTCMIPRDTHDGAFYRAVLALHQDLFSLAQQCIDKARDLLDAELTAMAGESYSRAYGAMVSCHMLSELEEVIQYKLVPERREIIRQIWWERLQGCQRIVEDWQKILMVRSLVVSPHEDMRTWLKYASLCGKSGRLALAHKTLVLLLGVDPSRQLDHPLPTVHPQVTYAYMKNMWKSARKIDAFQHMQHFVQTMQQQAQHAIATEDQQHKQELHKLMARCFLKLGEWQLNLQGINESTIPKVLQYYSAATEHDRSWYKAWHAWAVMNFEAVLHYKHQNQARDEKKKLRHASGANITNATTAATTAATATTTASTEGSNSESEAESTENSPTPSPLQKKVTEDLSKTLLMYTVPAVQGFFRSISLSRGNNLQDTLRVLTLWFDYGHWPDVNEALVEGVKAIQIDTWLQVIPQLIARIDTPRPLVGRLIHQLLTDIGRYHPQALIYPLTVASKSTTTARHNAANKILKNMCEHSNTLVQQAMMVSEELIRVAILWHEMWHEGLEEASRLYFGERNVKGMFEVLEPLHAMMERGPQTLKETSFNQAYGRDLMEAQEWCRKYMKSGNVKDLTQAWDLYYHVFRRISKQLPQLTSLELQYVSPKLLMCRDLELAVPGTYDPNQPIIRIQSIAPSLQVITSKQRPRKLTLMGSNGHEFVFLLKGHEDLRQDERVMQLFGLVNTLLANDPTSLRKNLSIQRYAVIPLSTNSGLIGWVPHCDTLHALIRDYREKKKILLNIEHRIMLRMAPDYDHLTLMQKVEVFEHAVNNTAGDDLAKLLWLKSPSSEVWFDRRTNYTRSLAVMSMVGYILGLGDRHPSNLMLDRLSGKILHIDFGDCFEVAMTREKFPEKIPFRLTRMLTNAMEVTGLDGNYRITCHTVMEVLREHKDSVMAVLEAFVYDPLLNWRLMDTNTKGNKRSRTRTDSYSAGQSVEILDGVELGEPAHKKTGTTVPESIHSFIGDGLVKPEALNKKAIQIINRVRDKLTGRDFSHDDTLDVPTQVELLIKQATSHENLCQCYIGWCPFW

For the molecule `CS(=O)(=O)c1cccc(-c2ccc3c(N4CCOCC4)nc(-c4cnc(N)nc4)nc3c2)c1` [Example 1, 5-(7-(3-(Methylsulfonyl)phenyl)-4-morpholinoquinazolin-2-yl)pyrimidin-2-amine], the IC50 with pAkt(S473) was 100 to 500 nM; with PC3 cells it was 501 to 5000 nM; in the experiment on pS6RP (S235/236), 100 to 500 nM; against PI3Kα (wild-type), 50 to 200 nM; in the experiment on pAkt(T308) it was 501 to 5000 nM; at mTOR kinase, 50 to 200 nM.
As for `CS(=O)(=O)c1cccc(-c2cc3nc(-c4cnc(N)nc4)nc(N4CCOCC4)c3cc2F)c1` [Example 2, 5-(6-Fluoro-7-(3-(methylsulfonyl)phenyl)-4-morpholinoquinazolin-2-yl)pyrimidin-2-amine], the IC50 in the experiment on PC3 cells was 501 to 5000 nM; in the experiment with pS6RP (S235/236), 501 to 5000 nM; against PI3Kα (wild-type) it was below 50 nM; at mTOR kinase, 50 to 200 nM.
As to `CS(=O)(=O)c1cccc(-c2cnc3c(N4CCOCC4)nc(-c4cnc(N)nc4)nc3c2)c1` [Example 20, 5-(7-(3-(methyl-sulfonyl)phenyl)-4-morpholinopyrido[3,2-d]-pyrimidin-2-yl)pyrimidin-2-amine], the IC50 in the experiment with PC3 cells was 100 to 500 nM; in the experiment on pS6RP (S235/236) it was 100 to 500 nM; against PI3Kα (wild-type) it was below 50 nM; against mTOR kinase, below 50 nM.
As for `Cn1cc(-c2cnc3c(N4CCOCC4)nc(-c4cnc(N)nc4)nc3c2)cn1` [Example 22, 5-(7-(1-methyl-1H-pyrazol-4-yl)-4-morpholinopyrido[3,2-d]-pyrimidin-2-yl)pyrimidin-2-amine], the IC50 in the experiment on pAkt(S473) is 501 to 5000 nM; in the experiment on PC3 cells, below 100 nM; with pS6RP (S235/236), 100 to 500 nM; at PI3Kα (wild-type) it was below 50 nM; with pAkt(T308), 100 to 500 nM; at mTOR kinase, below 50 nM.
As for `Nc1ncc(-c2nc(N3CCOCC3)c3ncc(-c4cncnc4)cc3n2)cn1` [Example 23, 5-(4-morpholino-7-(pyrimidin-5-yl)-pyrido[3,2-d]pyrimidin-2-yl)pyrimidin-2-amine], the IC50 was 100 to 500 nM in the experiment with pAkt(S473); above 1000 nM with PC3 cells; 501 to 5000 nM in the experiment with pS6RP (S235/236); below 50 nM at PI3Kα (wild-type); 50 to 200 nM against mTOR kinase.
As to `Nc1ncc(-c2nc(N3CCOCC3)c3ncc(-c4cccnc4F)cc3n2)cn1` [Example 24, 5-(7-(2-fluoropyridin-3-yl)-4-morpholino-pyrido[3,2-d]pyrimidin-2-yl)pyrimidin-2-amine], the IC50 was 501 to 5000 nM in the experiment with pAkt(S473); 100 to 500 nM with PC3 cells; 100 to 500 nM with pS6RP (S235/236); below 50 nM against PI3Kα (wild-type); 100 to 500 nM in the experiment with pAkt(T308); 50 to 200 nM against mTOR kinase.
Consider `CC(O)C(=O)Nc1cccc(-c2cnc3c(N4CCOCC4)nc(-c4cnc(N)nc4)nc3c2)c1` (centres unmarked) [Example 45, N-(3-(2-(2-amino-pyrimidin-5-yl)-4-morpholinopyrido[3,2-d]pyrimidin-7-yl)phenyl)-2-hydroxypropanamide], for which the IC50 in the experiment on PC3 cells was below 100 nM; in the experiment with pS6RP (S235/236), 100 to 500 nM; on PI3Kα (wild-type), below 50 nM; with pAkt(T308), 501 to 5000 nM; against mTOR kinase, below 50 nM.
In the case of `CN(C)CC(=O)Nc1cccc(-c2cnc3c(N4CCOCC4)nc(-c4cnc(N)nc4)nc3c2)c1` [Example 46, N-(3-(2-(2-amino-pyrimidin-5-yl)-4-morpholinopyrido[3,2-d]pyrimidin-7-yl)phenyl)-2-(dimethylamino)-acetamide], the IC50 in the experiment on PC3 cells is 100 to 500 nM; with pS6RP (S235/236) it was 501 to 5000 nM; on PI3Kα (wild-type), below 50 nM; against mTOR kinase, below 50 nM.
With `CC(=O)Nc1cccc(-c2cnc3c(N4CCOCC4)nc(-c4cnc(N)nc4)nc3c2)c1F` [Example 52, N-(3-(2-(2-amino-pyrimidin-5-yl)-4-morpholinopyrido[3,2-d]pyrimidin-7-yl)-2-fluorophenyl)acetamide], the IC50 in the experiment on pAkt(S473) was below 100 nM; in the experiment on PC3 cells, below 100 nM; with pS6RP (S235/236), below 100 nM; against PI3Kα (wild-type), below 50 nM; with pAkt(T308), below 100 nM; on mTOR kinase it was below 50 nM.
Regarding `Cc1ccc(C(=O)Nc2cccc(-c3cnc4c(N5CCOCC5)nc(-c5cnc(N)nc5)nc4c3)c2)o1` [Example 59, N-(3-(2-(2-amino-pyrimidin-5-yl)-4-morpholinopyrido[3,2-d]pyrimidin-7-yl)phenyl)-5-methylfuran-2-carboxamide], the IC50 in the experiment with pAkt(S473) is below 100 nM; in the experiment with PC3 cells it was 100 to 500 nM; with pS6RP (S235/236), below 100 nM; against PI3Kα (wild-type) it was below 50 nM; with pAkt(T308) it was 100 to 500 nM; against mTOR kinase, below 50 nM.
As to `Nc1ncc(-c2nc(N3CCOCC3)c3ncc(-c4cc(NC(=O)C5CC5)ccc4F)cc3n2)cn1` [Example 95, N-(3-(2-(2-amino-pyrimidin-5-yl)-4-morpholinopyrido[3,2-d]-pyrimidin-7-yl)-4-fluorophenyl)cyclopropane-carboxamide], the 50% inhibitory concentration (IC50) was below 100 nM with pAkt(S473); 100 to 500 nM in the experiment with PC3 cells; 100 to 500 nM with pS6RP (S235/236); below 50 nM at PI3Kα (wild-type); 50 to 200 nM on mTOR kinase.
As for `CC(C)(C)C(=O)Nc1cccc(-c2cnc3c(N4CCOCC4)nc(-c4cnc(N)nc4)nc3c2)c1` [Example 118, N-(3-(2-(2-amino-pyrimidin-5-yl)-4-morpholinopyrido[3,2-d]pyrimidin-7-yl)-phenyl)pivalamide], the IC50 is 501 to 5000 nM in the experiment on pAkt(S473); 501 to 5000 nM in the experiment with PC3 cells; 501 to 5000 nM in the experiment on pS6RP (S235/236); below 50 nM at PI3Kα (wild-type); below 50 nM against mTOR kinase.
For `CC(=O)Nc1cc(-c2cnc3c(N4CCOCC4)nc(-c4cnc(N)nc4)nc3c2)ccc1F` [Example 119, N-(5-(2-(2-amino-pyrimidin-5-yl)-4-morpholinopyrido[3,2-d]-pyrimidin-7-yl)-2-fluorophenyl)acetamide], the IC50 with pAkt(S473) was 100 to 500 nM; with PC3 cells it was below 100 nM; in the experiment on pS6RP (S235/236), below 100 nM; on PI3Kα (wild-type), below 50 nM; in the experiment on pAkt(T308) it was below 100 nM; against mTOR kinase, below 50 nM.
